According to PMC4686899, “Peptides derived from CXCL8 based on in silico analysis inhibit CXCL8 interactions with its receptor CXCR1” (Scientific Reports, 2015):
Ends that are not written are not given here.

Assays:
[1] = test system: THP-1 cell adhesion to CXCL8-treated HMEC-1; type: cell-based, human; settings: 25 ng/ml CXCL8, 18 h, no peptide, vs control
Protocol: Human micro-vascular endothelial cell-1 (HMEC-1, from American Type Culture Collection Manassas, USA) was maintained in MCDB 131 medium (Sigma, USA) with L-glutamine and fetal bovine serum (Sigma, USA) to a final concentration of 15%. The medium was supplemented with 500 units/ml penicillin (Biowest, USA), 500 μg/ml streptomycin (Biowest, USA), 10 ng/ml Epidermal Growth Factor (ProSpec, USA) and 1 µg/ml hydrocortisone (Sigma, USA). The THP-1 cells were maintained in the RPMI-1640 medium (Invitrogen, USA) with 10% FBS. For the assay of THP-1 cell adhesion to HMEC-1 monolayers, confluent HMEC-1 cell monolayers cultured on 24-well plates were pretreated with peptides for one hour and activated with 25 ng/ml LPS (Sigma, USA) or full length CXCL8 (ProSpec, USA) for 18 hours. THP-1 monocytes were suspended in RPMI 1640 and prelabeled with 5 mM Calcein-AM (Invitrogen, USA) for 30 minutes. Before the THP-1 cells were added to HMEC-1, the monolayers were washed twice to remove LPS or CXCL8. Fluorescence labeled monocytes (3 × 10^5 cells/well) were then added to HMEC-1 and incubated for 30 minutes at 37 °C. […] The images of adhered THP-1 cells were photographed (five images per well) under fluorescent microscopy and the number of attached monocytes was counted with the software AlphaImager 2200 (Alpha Innotech, USA).

[2] = test system: THP-1 transmigration across CXCL8-stimulated HMEC-1; test: CXCL8-induced monocyte transendothelial migration across HMEC-1 (Transwell); type: cell-based, human; settings: 25 ng/ml CXCL8, 18 h, vs absence of CXCL8
Protocol: (§1) Human micro-vascular endothelial cell-1 (HMEC-1, from American Type Culture Collection Manassas, USA) was maintained in MCDB 131 medium (Sigma, USA) with L-glutamine and fetal bovine serum (Sigma, USA) to a final concentration of 15%. The medium was supplemented with 500 units/ml penicillin (Biowest, USA), 500 μg/ml streptomycin (Biowest, USA), 10 ng/ml Epidermal Growth Factor (ProSpec, USA) and 1 µg/ml hydrocortisone (Sigma, USA). The THP-1 cells were maintained in the RPMI-1640 medium (Invitrogen, USA) with 10% FBS.
Migration of THP-1 cells across HMEC-1 was performed in a Transwell system (BD Bioscences, USA). Briefly, HMEC-1 cells cultured on transwell (polycarbonate membranes with 8 μm pore sizes) filters were pretreated with peptides for one hour and then stimulated with 25 ng/ml LPS or CXCL8 for 18 hours. THP-1 monocytes (2 × 10^5 cells/well) were added to the upper chamber of transwell inserts containing 50 μl RPMI 1640. LPS (25 ng/ml), CXCL8 peptide (p_wt14) (0.5 and 5 mM), or both combinations were added to the lower chamber to initiate transmigration. After four hours of incubation at 37 °C under 5% CO2, cells that had transmigrated to the lower chamber were harvested and counted using microscopy. All experiments were measured in at least three independent studies, and the data represent the number of transmigrated THP-1 cells.

HMEC-1 = test: Cell viability assay (WST-1); type: cell-based, human; settings: various concentrations of p_wt14, 24 and 48 h, WST-1, vs control
Protocol: as §1
To evaluate if the peptide p_wt14 is toxic to the HMEC-1 under resting conditions, 2 × 10^4 cells were dispensed into each well of 96-well micro-plates and incubated for 2 hours for adhesion. After that, the medium containing peptide p_wt14 at various concentrations was added. After 24 and 48 hours of incubation, cells were washed with Hank’s balanced salt solution and the viabilities of HMEC-1were determined by WST-1 assay kit (Roche, USA). Each experiment was performed in quadruplicate and repeated at least three times.

[3] = target: CXCR1p receptor-derived peptide (Homo sapiens), P25024; test: SPR; settings: modification not given
Chain of CXCR1p receptor-derived peptide (Homo sapiens), P25024 (P25024 9-29): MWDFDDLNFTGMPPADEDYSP

## CXCL8: chemokine CXCL8 (also known as interleukin-8 or IL-8), full length
[1]
  effect of CXCL8 on monocyte adhesion to HMEC-1 (in words): significant increase in the number of adhered monocytes
[2]
  effect of CXCL8 on monocyte transmigration (in words): considerable increase in monocyte transmigration

## QCIKTYSKPFHPKF [p_wt14]
HMEC-1
  HMEC-1 cell viability (in words): no significant cell viability difference

## IKTYSKPFHPKFIK [CXCL8 peptide p_wt14 14-residue peptide, P10145]
[3]
  Kd: 252 µM
